Measurements as given in ChEMBL document CHEMBL6121041, “Design and synthesis of isatin derivative payloaded peptide-drug conjugate as tubulin inhibitor against colorectal cancer” (Eur J Med Chem, 2025).
The source made the active and inactive calls. The rule behind the calls is not given here. Residues, ends and D or L forms follow the SMILES beside them. *: point of attachment. X1 = COc1ccc(CN2C(=O)C(=O)c3cc(-c4ccc(OC(=O)CCC(=O)*)cc4)ccc32)cc1

What was measured:
[1] = Cytotoxicity against HUVEC cells assessed as reduction in cell viability incubated for 48 hrs by MTT assay; assay type: toxicity, cell-based; conditions: human
[2] = Cytotoxicity against HK-2 cells assessed as reduction in cell viability incubated for 48 hrs by MTT assay; assay type: toxicity, cell-based; conditions: human
HCT-116 [3] = test: Antiproliferative activity against human HCT-116 cells assessed as reduction in cell viability incubated for 48 hrs by MTT assay; assay type: functional, cell-based; conditions: HCT-116, 48 h
786-0 = test: Antiproliferative activity against human 786-0 cells assessed as reduction in cell viability incubated for 48 hrs by MTT assay; assay type: functional, cell-based; conditions: 786-0, 48 h
HCC827 = test: Antiproliferative activity against human HCC827 cells assessed as reduction in cell viability incubated for 48 hrs by MTT assay; assay type: functional, cell-based; conditions: HCC827, 48 h
K562 = test: Antiproliferative activity against human K562 cells assessed as reduction in cell viability incubated for 48 hrs by MTT assay; assay type: functional, cell-based; conditions: K562, 48 h
MGC-803 = test: Antiproliferative activity against human MGC-803 cells assessed as reduction in cell viability incubated for 48 hrs by MTT assay; assay type: functional, cell-based; conditions: MGC-803, 48 h
HepG2 = test: Antiproliferative activity against human HepG2 cells assessed as reduction in cell viability incubated for 48 hrs by MTT assay; assay type: functional, cell-based; conditions: HepG2, 48 h
HCT-116 [4] = test: Inhibition of colony formation in human HCT-116 cells at 0.4 to 0.8 uM measured after 10 days by crystal violet staining based inverted microscopic analysis; assay type: functional, cell-based; conditions: dose 0.4-0.8 µM, time 10.0 day
HCT-116 [5] = test: Inhibition of wound closure in human HCT-116 cells at 0.4 uM measured after 48 hrs by wound healing assay; assay type: functional, cell-based
HCT-116 [6] = test: Induction of apoptosis in human HCT-116 cells assessed as cell fragmentation at 0.4 to 0.8 microM measured after 24 hrs by microscopic analysis; assay type: functional, cell-based; conditions: dose 0.4-0.8 µM
HCT-116 [7] = test: Induction of apoptosis in human HCT-116 cells assessed as morphological changes at 0.4 to 0.8 microM measured after 24 hrs by microscopic analysis; assay type: functional, cell-based; conditions: dose 0.4-0.8 µM
HCT-116 [8] = test: Induction of apoptosis in human HCT-116 cells assessed as morphological changes at 0.4 to 0.8 microM measured after 48 hrs by microscopic analysis; assay type: functional, cell-based; conditions: dose 0.4-0.8 µM
HCT-116 [9] = test: Induction of apoptosis in human HCT-116 cells at 0.4 to 0.8 uM incubated for 24 hrs by Annexin V-FITC/PI staining based flow cytometric analysis; assay type: functional, cell-based; conditions: dose 0.4-0.8 µM
HCT-116 [10] = test: Cell cycle arrest in human HCT-116 cells assessed as accumulation of cells at G2/M phase at 0.4 to 0.8 uM incubated for 24 hrs by PI staining based flow cytometric analysis; assay type: functional; conditions: dose 0.4-0.8 µM
HCT-116 [11] = test: Induction of apoptosis in human HCT-116 cells assessed as increase in caspase-3 activation level at 0.8 uM measured after 24 hrs by Western blot analysis; assay type: functional, cell-based
HCT-116 [12] = test: Induction of apoptosis in human HCT-116 cells assessed as increase in PARP activation level at 0.8 uM measured after 24 hrs by Western blot analysis; assay type: functional, cell-based
HCT-116 [13] = test: Induction of apoptosis in human HCT-116 cells assessed as downregulation of Bcl-2 protein at 0.8 uM measured after 24 hrs by Western blot analysis; assay type: functional, cell-based
HCT-116 [14] = test: Induction of apoptosis in human HCT-116 cells assessed as upregulation of Bax protein at 0.8 uM measured after 24 hrs by Western blot analysis; assay type: functional, cell-based
HCT-116 [15] = test: Cell cycle arrest in human HCT-116 cells assessed as decrease in CDK1 expression at 0.8 uM incubated for 24 hrs by Western blot analysis; assay type: functional, cell-based
HCT-116 [16] = test: Cell cycle arrest in human HCT-116 cells assessed as increase in cyclin B1 expression at 0.8 uM incubated for 24 hrs by Western blot analysis; assay type: functional, cell-based
HCT-116 [17] = test: Cell cycle arrest in human HCT-116 cells assessed as increase in p21 expression at 0.8 uM incubated for 24 hrs by Western blot analysis; assay type: functional, cell-based
HCT-116 [18] = test: Cell cycle arrest in human HCT-116 cells assessed as increase in p53 expression at 0.8 uM incubated for 24 hrs by Western blot analysis; assay type: functional, cell-based
HCT-116 [19] = test: Inhibition of beta-tubulin expression in human HCT-116 cells at 0.8 uM incubated for 24 hrs by Western blot analysis; assay type: functional, cell-based
[20] = Toxicity in SPF-grade Balb/c nude mouse xenografted with human HCT-116 cells assessed as average body weight at 33.86 to 45.17 mg/kg, ip measured after 10 days; assay type: organism-based; conditions: in vivo, 240 h, dose 33.86-45.17 mg/kg, time 10 day
HCT-116 [21] = test: Antitumor activity against human HCT-116 cells xenografted in SPF-grade Balb/c nude mouse model assessed as reduction in tumor size at 33.86 to 45.17 mg/kg, ip administered daily for 11 days by photographic analysis; assay type: functional, organism-based; conditions: dose 33.86-45.17 mg/kg, time 11.0 day
HCT-116 [22] = test: Antitumor activity against human HCT-116 cells xenografted in SPF-grade Balb/c nude mouse model assessed as tumor growth inhibition at 33.86 mg/kg, ip administered daily for 11 days relative to control; assay type: functional; conditions: HCT-116, 264 h, time 11 day, read-out: TGI
HCT-116 [23] = test: Antitumor activity against human HCT-116 cells xenografted in SPF-grade Balb/c nude mouse model assessed as inhibition of tumor cell growth at 33.86 to 45.17 mg/kg, ip administered daily for 11 days by H and E staining based analysis; assay type: functional, organism-based; conditions: dose 33.86-45.17 mg/kg, time 11.0 day

Row | IC50 (HCT-116 [3]) | IC50 (786-0) | IC50 (HCC827) | IC50 (K562) | IC50 (MGC-803) | IC50 (HepG2) | Structure (SMILES) | IC50 at 48 h [1] | IC50 at 48 h [2] | other results
1 | 18.7 µM | 87.6 µM | 4.15 µM | > 100 µM | 91.1 µM | > 100 µM | COc1ccc(CN2C(=O)C(=O)c3cc(-c4ccc(C(=O)O)cc4)ccc32)cc1 | 34.7 µM | 30.9 µM | –
2 | 0.263 µM | 15.2 µM | 3.62 µM | 0.47 µM | 58.2 µM | > 100 µM | COc1ccc(CN2C(=O)C(=O)c3cc(-c4ccc(OC)cc4)cc([N+](=O)[O-])c32)cc1 | 10.6 µM | 1.21 µM | –
3 | 0.728 µM | 30.8 µM | 4.15 µM | 0.5 µM | 76.5 µM | 71 µM | COc1ccc(CN2C(=O)C(=O)c3cc(-c4ccc(SC)cc4)ccc32)cc1 | 25 µM | 13.4 µM | –
4 | 0.349 µM | 33.3 µM | 24.2 µM | 0.77 µM | 27 µM | > 100 µM | COc1ccc(CN2C(=O)C(=O)c3cc(-c4ccc(CBr)cc4)ccc32)cc1 | 16 µM | 1.99 µM | –
5 | 1.6 µM | 138 µM | 12 µM | 2.07 µM | 86.2 µM | > 100 µM | COC(=O)c1ccc(-c2ccc3c(c2)C(=O)C(=O)N3Cc2ccc(OC)cc2)cc1 | 81.7 µM | 8.54 µM | –

Second part, the molecule before the results:

Row | Structure (SMILES) | IC50 (HCT-116 [3]) | IC50 (786-0) | IC50 (HCC827) | IC50 (K562) | IC50 (MGC-803) | IC50 (HepG2) | IC50 at 48 h [1] | IC50 at 48 h [2] | other results
6 | CCN(CC)CCNC(=O)c1c(C)[nH]c(/C=C2\C(=O)Nc3ccc(F)cc32)c1C [SUNITINIB] | 2.23 µM | 9.02 µM | 1.34 µM | 1.25 µM | 8.25 µM | 4.7 µM | 7.7 µM | 6.88 µM | –
7 | COc1ccc(CN2C(=O)C(=O)c3cc(-c4ccc(OC)cc4)cc(N)c32)cc1 | > 100 µM | > 100 µM | 13.7 µM | 89.4 µM | > 100 µM | > 100 µM | > 100 µM | > 100 µM | –
8 | COc1ccc(CN2C(=O)C(=O)c3cc(-c4ccc(CO)cc4)ccc32)cc1 | 0.786 µM | 40.4 µM | 34.7 µM | 0.81 µM | 29.2 µM | > 100 µM | 18.8 µM | 12.6 µM | –
9 | COc1ccc(CN2C(=O)C(=O)c3cc(-c4ccc(OC)cc4)ccc32)cc1 | 0.768 µM | 51.4 µM | 10.1 µM | 0.31 µM | 19 µM | 43 µM | 27.2 µM | 10.5 µM | –
10 | CC(=O)N[C@@H](CCCCN)C(=O)N1CCC[C@H]1C(=O)N[C@@H](CO)C(=O)N[C@@H](CO)C(=O)N1CCC[C@H]1C(=O)N1CCC[C@H]1C(=O)N[C@@H](CCC(=O)O)C(=O)N[C@@H](CCC(=O)O)C(N)=O (Ac-KPSSPPEE-NH2) | > 100 µM | – | – | – | – | – | > 100 µM | – | –
11 | COc1ccc(CN2C(=O)C(=O)c3cc(-c4ccc(OC(=O)CCC(=O)NCCCC[C@H](NC(C)=O)C(=O)N5CCC[C@H]5C(=O)N[C@@H](CO)C(=O)N[C@@H](CO)C(=O)N5CCC[C@H]5C(=O)N5CCC[C@H]5C(=O)N[C@@H](CCC(=O)O)C(=O)N[C@@H](CCC(=O)O)C(N)=O)cc4)ccc32)cc1 (Ac-K(X1)PSSPPEE-NH2) | 0.23 µM | – | – | – | – | – | 43 µM | – | inhibition (HCT-116 [4]): Active; inhibition (HCT-116 [5]): Active; Activity (HCT-116 [6]): Active; Activity (HCT-116 [7]): Active; Activity (HCT-116 [8]): Active; More Evident Apoptotic State Observed; Activity (HCT-116 [9]): Active; Activity (HCT-116 [10]): Active; Activity (HCT-116 [11]): Active; Activity (HCT-116 [12]): Active; Activity (HCT-116 [13]): Active; Activity (HCT-116 [14]): Active; Activity (HCT-116 [15]): Active; Activity (HCT-116 [16]): Active; Activity (HCT-116 [17]): Active; Activity (HCT-116 [18]): Active; inhibition (HCT-116 [19]): Active; Activity [20]: ~ 10 g; Activity (HCT-116 [21]): Active; inhibition in vivo at 33.86 mg/kg (HCT-116 [22]): 47%; Activity (HCT-116 [23]): Active
12 | COc1ccc(CN2C(=O)C(=O)c3cc(-c4ccc(COC(C)=O)cc4)ccc32)cc1 | 2.02 µM | 50.5 µM | 29.3 µM | 1.14 µM | > 100 µM | 6.78 µM | 34.7 µM | 9.02 µM | –
